Results reported in PubChem BioAssay AID1963982 (Molecular Pharmacology Branch, DTP, NCI, 2024).

Test system: 313798-341-R-J2-PDC spheroids, viability
Test: Anticancer human tumor 313798-341-R-J2-PDC patient-derived cervical squamous cell carcinoma cell line growth inhibition [PI3K]
Conditions: spheroids with HUVEC and MSC; for IC50: curve of first compound; for viability, T/C: stronger effect = lower value
Outline: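 Viability of mixed-cell spheroids was determined after exposure to pairwise combinations, one partner being inavolisib, alpelisib, duvelisib or copanlisib. Highest tested concentration matched clinical Cmax where known and 10 microM where not, descending in half-log steps.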

[1] = second compound 0.00316 µM, first compound 0.0316 µM
[2] = second compound 0.00316 µM, first compound 0.1 µM
[3] = second compound 0.01 µM, first compound 0.0316 µM
[4] = second compound 0.01 µM, first compound 0.1 µM
[5] = second compound 0.0316 µM, first compound 0.0316 µM
[6] = second compound 0.0316 µM, first compound 0.1 µM
[7] = second compound 0.1 µM, first compound 0.0316 µM
[8] = second compound 0.1 µM, first compound 0.1 µM
[9] = second compound 0.316 µM, first compound 0.0316 µM
[10] = second compound 0.316 µM, first compound 0.1 µM
[11] = second compound 1 µM, first compound 0.0316 µM
[12] = second compound 1 µM, first compound 0.1 µM
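Further: spheroids exposed to compounds for seven days.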
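Wherever viability, T/C is given: 100% = DMSO vehicle control viability.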

## Cn1ncnc1[C@H]1c2n[nH]c(=O)c3cc(F)cc(c23)N[C@@H]1c1ccc(F)cc1 + COc1c(OCCCN2CCOCC2)ccc2c3n(c(=NC(=O)c4cnc(N)nc4)nc12)CCN3
Second compound 0.00316 µM
  IC50: > 100 nM
Second compound 0.01 µM
  IC50: > 100 nM
Second compound 0.0316 µM
  IC50: > 100 nM
Second compound 0.1 µM
  IC50: < 0.316 nM
Second compound 0.316 µM
  IC50: < 0.316 nM
Second compound 1 µM
  IC50: < 0.316 nM
Second compound 0.00316 µM, first compound 0.000316 µM
  viability, T/C: 97.5%
Second compound 0.00316 µM, first compound 0.001 µM
  viability, T/C: 95.9%
Second compound 0.00316 µM, first compound 0.00316 µM
  viability, T/C: 107%
Second compound 0.00316 µM, first compound 0.01 µM
  viability, T/C: 111%
[1]
  viability, T/C: 97.9%
[2]
  viability, T/C: 93.1%
Second compound 0.01 µM, first compound 0.000316 µM
  viability, T/C: 106%
Second compound 0.01 µM, first compound 0.001 µM
  viability, T/C: 107%
Second compound 0.01 µM, first compound 0.00316 µM
  viability, T/C: 99%
Second compound 0.01 µM, first compound 0.01 µM
  viability, T/C: 89.6%
[3]
  viability, T/C: 87.9%
[4]
  viability, T/C: 87.3%
Second compound 0.0316 µM, first compound 0.000316 µM
  viability, T/C: 68.4%
Second compound 0.0316 µM, first compound 0.001 µM
  viability, T/C: 97.1%
Second compound 0.0316 µM, first compound 0.00316 µM
  viability, T/C: 75.8%
Second compound 0.0316 µM, first compound 0.01 µM
  viability, T/C: 71.5%
[5]
  viability, T/C: 64.2%
[6]
  viability, T/C: 65.1%
Second compound 0.1 µM, first compound 0.000316 µM
  viability, T/C: 39.6%
Second compound 0.1 µM, first compound 0.001 µM
  viability, T/C: 49.8%
Second compound 0.1 µM, first compound 0.00316 µM
  viability, T/C: 46.6%
Second compound 0.1 µM, first compound 0.01 µM
  viability, T/C: 43.6%
[7]
  viability, T/C: 42.4%
[8]
  viability, T/C: 37.1%
Second compound 0.316 µM, first compound 0.000316 µM
  viability, T/C: 17.3%
Second compound 0.316 µM, first compound 0.001 µM
  viability, T/C: 18.4%
Second compound 0.316 µM, first compound 0.00316 µM
  viability, T/C: 15.1%
Second compound 0.316 µM, first compound 0.01 µM
  viability, T/C: 15.7%
[9]
  viability, T/C: 12.8%
[10]
  viability, T/C: 15.7%
Second compound 1 µM, first compound 0.000316 µM
  viability, T/C: 11.8%
Second compound 1 µM, first compound 0.001 µM
  viability, T/C: 14.1%
Second compound 1 µM, first compound 0.00316 µM
  viability, T/C: 14.5%
Second compound 1 µM, first compound 0.01 µM
  viability, T/C: 12.5%
[11]
  viability, T/C: 13.9%
[12]
  viability, T/C: 10.1%

## C=CC(=O)N1CCN(c2nc(=O)n(-c3c(C)ccnc3C(C)C)c3nc(-c4c(O)cccc4F)c(F)cc23)C(C)C1 (centres undefined) + COc1c(OCCCN2CCOCC2)ccc2c3n(c(=NC(=O)c4cnc(N)nc4)nc12)CCN3
Second compound 0.00316 µM
  IC50: > 10000 nM
Second compound 0.01 µM
  IC50: > 10000 nM
Second compound 0.0316 µM
  IC50: > 10000 nM
Second compound 0.1 µM
  IC50: < 31.6 nM
Second compound 0.316 µM
  IC50: < 31.6 nM
Second compound 1 µM
  IC50: < 31.6 nM
[1]
  viability, T/C: 98.3%
[2]
  viability, T/C: 103%
Second compound 0.00316 µM, first compound 0.316 µM
  viability, T/C: 106%
Second compound 0.00316 µM, first compound 1 µM
  viability, T/C: 96.1%
Second compound 0.00316 µM, first compound 3.16 µM
  viability, T/C: 101%
Second compound 0.00316 µM, first compound 10 µM
  viability, T/C: 106%
[3]
  viability, T/C: 92%
[4]
  viability, T/C: 99.4%
Second compound 0.01 µM, first compound 0.316 µM
  viability, T/C: 106%
Second compound 0.01 µM, first compound 1 µM
  viability, T/C: 112%
Second compound 0.01 µM, first compound 3.16 µM
  viability, T/C: 112%
Second compound 0.01 µM, first compound 10 µM
  viability, T/C: 96.5%
[5]
  viability, T/C: 70.6%
[6]
  viability, T/C: 80.3%
Second compound 0.0316 µM, first compound 0.316 µM
  viability, T/C: 91.4%
Second compound 0.0316 µM, first compound 1 µM
  viability, T/C: 90.4%
Second compound 0.0316 µM, first compound 3.16 µM
  viability, T/C: 83.6%
Second compound 0.0316 µM, first compound 10 µM
  viability, T/C: 82.9%
[7]
  viability, T/C: 44.8%
[8]
  viability, T/C: 48.9%
Second compound 0.1 µM, first compound 0.316 µM
  viability, T/C: 52.1%
Second compound 0.1 µM, first compound 1 µM
  viability, T/C: 48.7%
Second compound 0.1 µM, first compound 3.16 µM
  viability, T/C: 50.1%
Second compound 0.1 µM, first compound 10 µM
  viability, T/C: 42.9%
[9]
  viability, T/C: 16.8%
[10]
  viability, T/C: 17.9%
Second compound 0.316 µM, first compound 0.316 µM
  viability, T/C: 15.4%
Second compound 0.316 µM, first compound 1 µM
  viability, T/C: 18.2%
Second compound 0.316 µM, first compound 3.16 µM
  viability, T/C: 19.1%
Second compound 0.316 µM, first compound 10 µM
  viability, T/C: 13.5%
[11]
  viability, T/C: 12%
[12]
  viability, T/C: 12.6%
Second compound 1 µM, first compound 0.316 µM
  viability, T/C: 12.8%
Second compound 1 µM, first compound 1 µM
  viability, T/C: 13.7%
Second compound 1 µM, first compound 3.16 µM
  viability, T/C: 14.6%
Second compound 1 µM, first compound 10 µM
  viability, T/C: 10.2%
